Structures are written as SMILES.

Experiment [1] has as its system HT-29. Put plainly: Cell cycle arrest in human HT-29 cells assessed as accumulation at sub-G1 phase at 2.5 uM after 48 hrs by flow cytometry. The format is functional.
Experiment [2] concerns HT-29. Put plainly: Cell cycle arrest in human HT-29 cells assessed as accumulation at sub-G1 phase at 1 uM after 24 hrs by flow cytometry. The format is functional.
The subject of experiment [3] is A549. Nature of the experiment: Antiproliferative activity against human A549 cells after 3 days by MTT assay. The format is functional, cell-based. The note with it: A549, 72 h.
Experiment [4] relates to HT-29. Put plainly: Cell cycle arrest in human HT-29 cells assessed as accumulation at sub-G1 phase at 0.1 uM after 24 hrs by flow cytometry. The class given is functional.
For experiment [5], the system named is HT-29. Put plainly: Cell cycle arrest in human HT-29 cells assessed as accumulation at sub-G1 phase at 0.05 uM after 48 hrs by flow cytometry. The class given is functional.
Experiment [6] relates to HT-29. Nature of the experiment: Cell cycle arrest in human HT-29 cells assessed as accumulation at sub-G1 phase at 0.5 uM after 24 hrs by flow cytometry. The format is functional.
Experiment [7] concerns HT-29. Put plainly: Cell cycle arrest in human HT-29 cells assessed as accumulation at sub-G1 phase at 2.5 uM after 24 hrs by flow cytometry. The format is functional.
The subject of experiment [8] is HT-29. Put plainly: Cell cycle arrest in human HT-29 cells assessed as accumulation at sub-G1 phase at 0.25 uM after 24 hrs by flow cytometry. The format is functional.
The test system of experiment [9] is HT-29. Nature of the experiment: Cell cycle arrest in human HT-29 cells assessed as accumulation at sub-G1 phase at 0.5 uM after 48 hrs by flow cytometry. The class given is functional.
Experiment [10] concerns HT-29. Put plainly: Cell cycle arrest in human HT-29 cells assessed as accumulation at sub-G1 phase at 1 uM after 48 hrs by flow cytometry. The format is functional.
The test system of experiment [11] is HT-29. Put plainly: Antiproliferative activity against human HT-29 cells after 3 days by MTT assay. The format is functional, cell-based. The note with it: HT-29, 72 h.
Experiment [12] has as its system HT-29. Put plainly: Cell cycle arrest in human HT-29 cells assessed as accumulation at sub-G1 phase at 0.25 uM after 48 hrs by flow cytometry. The class given is functional.
Experiment [13] deals with HT-29. Nature of the experiment: Cell cycle arrest in human HT-29 cells assessed as accumulation at sub-G1 phase at 0.05 uM after 24 hrs by flow cytometry. The format is functional.
Experiment [14] concerns HeLa. Nature of the experiment: Antiproliferative activity against human HeLa cells after 3 days by MTT assay. The class given is functional, cell-based. The note with it: 72 h.
For experiment [15], the system named is HT-29. Put plainly: Cell cycle arrest in human HT-29 cells assessed as accumulation at sub-G1 phase at 0.1 uM after 48 hrs by flow cytometry. The class given is functional.

Consider `Nc1ccc2cc3ccc(I)cc3nc2c1CO`, for which the Activity was determined as 12% in experiment [1]; 8.7% in [2]; 1.4% in experiment [4]; 2.14% in experiment [5]; 1.7% in [6]; 8.9% in experiment [7]. The Activity in [8] is listed as 6.3%; in [9], 19.3%; in experiment [10], 14.8%; in experiment [12], 23.7%; in [13], 3.9%; in [15], 22.6%. The IC50 came out at 130 nM in [3], 70 nM in experiment [11] and 70 nM in experiment [14].

Consider `Nc1ccc2cc3ccccc3nc2c1CO`, for which the Activity in experiment [1] worked out at 23.4%; in experiment [2] it was 5.2%; in [4] it was 0.1%; in experiment [5] it was 0.7%; in experiment [6], 9.7%; in [7] it was 13.7%. For the same compound, the Activity in experiment [8] was 0.7%; in experiment [9], 26.3%; in [10], 31.7%; in experiment [12], 18.7%; in experiment [13] it was 3.2%; in experiment [15] it was 4.7%. The figures for the half-maximal inhibitory concentration (IC50) in experiment [3], in experiment [11] and in experiment [14] were 60 nM, 34 nM and 70 nM, respectively.
